{
  "source": "patent US6713057B1",
  "about": "“Compositions and methods for modulating serum cholesterol” (The Johns Hopkins University, priority 1999, dated 2004)",
  "tested_on": "SREBP-1",
  "test": "SREBP-1 maturation (Western immunoblot) in hepatocytes transfected with N-SMase plasmids or incubated with r-N-SMase",
  "format": "cell-based, human",
  "conditions": "C-2 ceramide positive control",
  "method": "The present example was conducted to address whether the overexpression of N-SMase employing two separate N-SMase plasmid DNA(PHH-1, representing the entire nucleotide sequence in N-SMase cDNA and PHH-11, representing nucleotide sequence 862-1414) would increase the maturation of SREBP-1 and LDL receptor mRNA expression in a human hepatocyte cell line […]. Cells transfected with mock plasmid cDNA(PSV-SPOT) served as a control and cells incubated with C-2 ceramide previously shown to induce SREBP-1 maturation served as a positive control.\nBriefly, human hepatocytes(1×10^4) were seeded in sterile 100 mm^2 in medium containing 10% dialyzed, heat inactivated fetal bovine serum without antibiotics. Twenty four hours later medium was replaced with 9 ml of fresh serum free medium. After incubation for 30 min at 37° C. 5-40 μg of the plasmid DNA in 1 ml of a CaCl2 solution (mixed with equal volume of 0.25-2.5 M CaCl2 solution in HEPES buffer and HEPES buffer pH 6.95). Following gentle mixing incubation of cells was continued for 5-24 hr at 37° C. The transfection reaction was terminated by removing the medium and washing the cells with serum free medium. Next, fresh serum supplemented medium was added and incubation was continued for an additional 24 hr and cells were harvested in appropriate buffer centrifuged and stored frozen until further analysis. […]",
  "data": [
    {"smiles": "CCCCCCCCCCCCC/C=C/[C@@H](O)[C@H](CO)NC(C)=O", "note": "[C2-ceramide, N-acetylsphingosine, reference compound]", "values": [
      {"measurement": "maturation of SREBP-1 compared to mock cDNA transfected cells", "setting": "PHH1 5,10,20,40 μg plasmid DNA/dish, PHH11 20 μg/dish", "value": "markedly increased"},
      {"measurement": "maturation of SREBP-1 in hepatocytes incubated with protein or ceramide", "setting": "r-N-SMase 0.4, 0.8, 2, and 4 μg/ml", "value": "markedly increased"}
    ]}
  ]
}
